In ChEMBL document CHEMBL3885861, “Open TG-GATES”:

Species: Rattus norvegicus
Assay: Open TG-GATES - Regimen: Daily Repeat
Type: toxicity, organism-based, Sprague-Dawley
Set-up: regimen Daily Repeat, gender Male, age 6 weeks
Conditions: in vivo, po, route gavage; for APTT / Bas / Eos / Fbg / Hb / Ht / Lym / MCH / MCHC / MCV / Mono / Neu / PT / Plat / RBC / Ret / WBC: tissue Blood; for KIDNEY_L / KIDNEY_R / KIDNEY_TOTAL: tissue Kidney; for LIVER: tissue Liver; for A/G / ALP / ALT / AST / BUN / CRE / Ca / Cl / DBIL / GLC / IP / K / LDH / Na / PL / RALB / TBIL / TC / TG / TP / gamma-GTP: tissue Plasma
[1] = 100 mg/kg, 72 h, dose level Middle, time 3 day
[2] = 100 mg/kg, […], dose level Middle, time 7 day
[3] = 100 mg/kg, […], dose level Middle, time 14 day
[4] = 100 mg/kg, […], dose level Middle, time 28 day
[5] = 300 mg/kg, 72 h, dose level High, time 3 day
[6] = 300 mg/kg, […], dose level High, time 7 day
[7] = 300 mg/kg, […], dose level High, time 14 day
[8] = 300 mg/kg, […], dose level High, time 28 day

CC(=O)Nc1ccc2c(c1)Cc1ccccc1-2 [2-ACETYLAMINOFLUORENE]
TERMINAL_BW [1]: 202.9 g
APTT [1]: 20.1 s
Bas [1]: 0.8%
Eos [1]: 0.8%
Fbg [1]: 260.6 mg/dL
Hb [1]: 15.7 g/dL
Ht [1]: 45.1%
Lym [1]: 72.4%
MCH [1]: 21.9 pg
MCHC [1]: 34.9%
MCV [1]: 62.7 fL
Mono [1]: 2.8%
Neu [1]: 22.4%
PT [1]: 12.7 s
Plat [1]: 133.7 x10_4/uL
RBC [1]: 718.2 x10_4/ul
Ret [1]: 3.6%
WBC [1]: 85 x10_2/uL
KIDNEY_L [1]: 1 g
KIDNEY_R [1]: 0.9 g
KIDNEY_TOTAL [1]: 1.9 g
LIVER [1]: 8.8 g
A/G [1]: 1.4
ALP [1]: 615.4 IU/L
ALT [1]: 24 IU/L
AST [1]: 70.8 IU/L
BUN [1]: 11.4 mg/dL
CRE [1]: 0.4 mg/dL
Ca [1]: 10.1 mg/dL
Cl [1]: 104.4 meq/L
DBIL [1]: 0.076 mg/dL
GLC [1]: 191 mg/dL
IP [1]: 8.2 mg/dL
K [1]: 4.3 meq/L
LDH [1]: 220.8 IU/L
Na [1]: 141.6 meq/L
PL [1]: 86.2 mg/dL
RALB [1]: 2.9 g/dL
TBIL [1]: 0.1 mg/dL
TC [1]: 45.4 mg/dL
TG [1]: 47.6 mg/dL
TP [1]: 5 g/dL
gamma-GTP [1]: 1.2 IU/L
TERMINAL_BW [2]: 214.1 g
TERMINAL_BW [3]: 247.1 g
TERMINAL_BW [4]: 286 g
APTT [2]: 20.2 s
Bas [2]: 0.8%
Eos [2]: 0.6%
Fbg [2]: 167.8 mg/dL
Hb [2]: 14.7 g/dL
Ht [2]: 41.6%
Lym [2]: 83%
MCH [2]: 20.5 pg
MCHC [2]: 35.3%
MCV [2]: 58.1 fL
Mono [2]: 2.8%
Neu [2]: 12.2%
PT [2]: 13.8 s
Plat [2]: 174.6 x10_4/uL
RBC [2]: 715.8 x10_4/ul
Ret [2]: 1.2%
WBC [2]: 106.3 x10_2/uL
APTT [3]: 18.3 s
Bas [3]: 0.8%
Eos [3]: 0%
Fbg [3]: 106.8 mg/dL
Hb [3]: 13.1 g/dL
Ht [3]: 38.5%
Lym [3]: 74.6%
MCH [3]: 19.7 pg
MCHC [3]: 34.1%
MCV [3]: 57.7 fL
Mono [3]: 3%
Neu [3]: 21%
PT [3]: 15.2 s
Plat [3]: 144.4 x10_4/uL
RBC [3]: 667 x10_4/ul
Ret [3]: 6.3%
WBC [3]: 169.9 x10_2/uL
APTT [4]: 22.1 s
Bas [4]: 0.2%
Eos [4]: 0%
Fbg [4]: 74.4 mg/dL
Hb [4]: 13.6 g/dL
Ht [4]: 40.8%
Lym [4]: 61.6%
MCH [4]: 20.5 pg
MCHC [4]: 33.4%
MCV [4]: 61.3 fL
Mono [4]: 2.8%
Neu [4]: 34.2%
PT [4]: 18.8 s
Plat [4]: 149.9 x10_4/uL
RBC [4]: 667.6 x10_4/ul
Ret [4]: 6.6%
WBC [4]: 220.7 x10_2/uL
KIDNEY_L [2]: 1 g
KIDNEY_R [2]: 0.9 g
KIDNEY_TOTAL [2]: 1.9 g
KIDNEY_L [3]: 1.1 g
KIDNEY_R [3]: 1.1 g
KIDNEY_TOTAL [3]: 2.2 g
KIDNEY_L [4]: 1.3 g
KIDNEY_R [4]: 1.3 g
KIDNEY_TOTAL [4]: 2.5 g
LIVER [2]: 9.2 g
LIVER [3]: 10.6 g
LIVER [4]: 11.7 g
A/G [2]: 1.5
ALP [2]: 822.2 IU/L
ALT [2]: 33.8 IU/L
AST [2]: 83.4 IU/L
BUN [2]: 11.4 mg/dL
CRE [2]: 0.4 mg/dL
Ca [2]: 9.8 mg/dL
Cl [2]: 105.4 meq/L
DBIL [2]: 0.098 mg/dL
GLC [2]: 170.6 mg/dL
IP [2]: 6 mg/dL
K [2]: 4.1 meq/L
LDH [2]: 274.8 IU/L
Na [2]: 139.8 meq/L
PL [2]: 93 mg/dL
RALB [2]: 2.6 g/dL
TBIL [2]: 0.2 mg/dL
TC [2]: 37.6 mg/dL
TG [2]: 75.2 mg/dL
TP [2]: 4.4 g/dL
gamma-GTP [2]: 1 IU/L
A/G [3]: 1.3
ALP [3]: 791.2 IU/L
ALT [3]: 41 IU/L
AST [3]: 83.6 IU/L
BUN [3]: 13.6 mg/dL
CRE [3]: 0.5 mg/dL
Ca [3]: 9.6 mg/dL
Cl [3]: 103.4 meq/L
DBIL [3]: 0.6 mg/dL
GLC [3]: 157 mg/dL
IP [3]: 7.8 mg/dL
K [3]: 4.1 meq/L
LDH [3]: 206 IU/L
Na [3]: 141 meq/L
PL [3]: 104.8 mg/dL
RALB [3]: 2.3 g/dL
TBIL [3]: 0.7 mg/dL
TC [3]: 43.4 mg/dL
TG [3]: 64.6 mg/dL
TP [3]: 4.1 g/dL
gamma-GTP [3]: 2 IU/L
A/G [4]: 1.1
ALP [4]: 1005.4 IU/L
ALT [4]: 58.8 IU/L
AST [4]: 126.6 IU/L
BUN [4]: 12.4 mg/dL
CRE [4]: 0.4 mg/dL
Ca [4]: 8.9 mg/dL
Cl [4]: 104.6 meq/L
DBIL [4]: 1.2 mg/dL
GLC [4]: 146 mg/dL
IP [4]: 6.7 mg/dL
K [4]: 3.9 meq/L
LDH [4]: 264.4 IU/L
Na [4]: 141 meq/L
PL [4]: 128.8 mg/dL
RALB [4]: 2 g/dL
TBIL [4]: 1.6 mg/dL
TC [4]: 55.4 mg/dL
TG [4]: 76.2 mg/dL
TP [4]: 3.9 g/dL
gamma-GTP [4]: 9.6 IU/L
TERMINAL_BW [5]: 193.8 g
APTT [5]: 20.9 s
Bas [5]: 0.8%
Eos [5]: 0.8%
Fbg [5]: 229.4 mg/dL
Hb [5]: 15.2 g/dL
Ht [5]: 43.9%
Lym [5]: 71.4%
MCH [5]: 21.2 pg
MCHC [5]: 34.6%
MCV [5]: 61.2 fL
Mono [5]: 3%
Neu [5]: 23.2%
PT [5]: 12.8 s
Plat [5]: 140.3 x10_4/uL
RBC [5]: 716.4 x10_4/ul
Ret [5]: 2.9%
WBC [5]: 127.6 x10_2/uL
KIDNEY_L [5]: 0.9 g
KIDNEY_R [5]: 0.9 g
KIDNEY_TOTAL [5]: 1.9 g
LIVER [5]: 9.4 g
A/G [5]: 1.5
ALP [5]: 595 IU/L
ALT [5]: 24 IU/L
AST [5]: 72.2 IU/L
BUN [5]: 10.2 mg/dL
CRE [5]: 0.4 mg/dL
Ca [5]: 9.9 mg/dL
Cl [5]: 105.8 meq/L
DBIL [5]: 0.096 mg/dL
GLC [5]: 193.6 mg/dL
IP [5]: 7.4 mg/dL
K [5]: 4.3 meq/L
LDH [5]: 281.2 IU/L
Na [5]: 142.4 meq/L
PL [5]: 93.2 mg/dL
RALB [5]: 2.9 g/dL
TBIL [5]: 0.2 mg/dL
TC [5]: 49.2 mg/dL
TG [5]: 52.2 mg/dL
TP [5]: 5 g/dL
gamma-GTP [5]: 1.2 IU/L
TERMINAL_BW [6]: 219.8 g
TERMINAL_BW [7]: 246.4 g
TERMINAL_BW [8]: 274 g
APTT [6]: 19.8 s
Bas [6]: 0.6%
Eos [6]: 1%
Fbg [6]: 207 mg/dL
Hb [6]: 12.9 g/dL
Ht [6]: 36%
Lym [6]: 68.2%
MCH [6]: 21.4 pg
MCHC [6]: 35.9%
MCV [6]: 59.5 fL
Mono [6]: 3%
Neu [6]: 26.4%
PT [6]: 12.4 s
Plat [6]: 184.8 x10_4/uL
RBC [6]: 605.6 x10_4/ul
Ret [6]: 4.7%
WBC [6]: 186.5 x10_2/uL
APTT [7]: 21.6 s
Bas [7]: 0.6%
Eos [7]: 0%
Fbg [7]: 169.6 mg/dL
Hb [7]: 13.2 g/dL
Ht [7]: 40.3%
Lym [7]: 73.2%
MCH [7]: 22.8 pg
MCHC [7]: 32.7%
MCV [7]: 70 fL
Mono [7]: 2.6%
Neu [7]: 23%
PT [7]: 13.5 s
Plat [7]: 163 x10_4/uL
RBC [7]: 576.8 x10_4/ul
Ret [7]: 14.7%
WBC [7]: 142.6 x10_2/uL
APTT [8]: 23 s
Bas [8]: 0%
Eos [8]: 0.4%
Fbg [8]: 142 mg/dL
Hb [8]: 13.2 g/dL
Ht [8]: 39.8%
Lym [8]: 67.6%
MCH [8]: 20.9 pg
MCHC [8]: 33.1%
MCV [8]: 63.1 fL
Mono [8]: 2.6%
Neu [8]: 27.8%
PT [8]: 13.3 s
Plat [8]: 134.9 x10_4/uL
RBC [8]: 632.8 x10_4/ul
Ret [8]: 10.2%
WBC [8]: 131.2 x10_2/uL
KIDNEY_L [6]: 1 g
KIDNEY_R [6]: 1 g
KIDNEY_TOTAL [6]: 2 g
KIDNEY_L [7]: 1.1 g
KIDNEY_R [7]: 1 g
KIDNEY_TOTAL [7]: 2.1 g
KIDNEY_L [8]: 1.2 g
KIDNEY_R [8]: 1.2 g
KIDNEY_TOTAL [8]: 2.3 g
LIVER [6]: 11.5 g
LIVER [7]: 13.3 g
LIVER [8]: 13.2 g
A/G [6]: 1.5
ALP [6]: 616.8 IU/L
ALT [6]: 32 IU/L
AST [6]: 75.8 IU/L
BUN [6]: 13 mg/dL
CRE [6]: 0.5 mg/dL
Ca [6]: 10.4 mg/dL
Cl [6]: 102.8 meq/L
DBIL [6]: 0.1 mg/dL
GLC [6]: 165.8 mg/dL
IP [6]: 6.5 mg/dL
K [6]: 4 meq/L
LDH [6]: 224.2 IU/L
Na [6]: 138.4 meq/L
PL [6]: 113.2 mg/dL
RALB [6]: 2.8 g/dL
TBIL [6]: 0.2 mg/dL
TC [6]: 51.6 mg/dL
TG [6]: 115 mg/dL
TP [6]: 4.7 g/dL
gamma-GTP [6]: 1 IU/L
A/G [7]: 1.5
ALP [7]: 611.4 IU/L
ALT [7]: 39.8 IU/L
AST [7]: 70.4 IU/L
BUN [7]: 13.2 mg/dL
CRE [7]: 0.5 mg/dL
Ca [7]: 9.9 mg/dL
Cl [7]: 104.8 meq/L
DBIL [7]: 0.2 mg/dL
GLC [7]: 160.6 mg/dL
IP [7]: 6.8 mg/dL
K [7]: 4.3 meq/L
LDH [7]: 190 IU/L
Na [7]: 141 meq/L
PL [7]: 135.4 mg/dL
RALB [7]: 2.9 g/dL
TBIL [7]: 0.3 mg/dL
TC [7]: 54.8 mg/dL
TG [7]: 154.4 mg/dL
TP [7]: 4.8 g/dL
gamma-GTP [7]: 1.2 IU/L
A/G [8]: 1.3
ALP [8]: 649.6 IU/L
ALT [8]: 42.4 IU/L
AST [8]: 72.6 IU/L
BUN [8]: 14 mg/dL
CRE [8]: 0.5 mg/dL
Ca [8]: 9.8 mg/dL
Cl [8]: 104.8 meq/L
DBIL [8]: 0.3 mg/dL
GLC [8]: 162.2 mg/dL
IP [8]: 6.6 mg/dL
K [8]: 3.7 meq/L
LDH [8]: 169.8 IU/L
Na [8]: 140.4 meq/L
PL [8]: 145.6 mg/dL
RALB [8]: 2.7 g/dL
TBIL [8]: 0.4 mg/dL
TC [8]: 59.4 mg/dL
TG [8]: 134.8 mg/dL
TP [8]: 4.8 g/dL
gamma-GTP [8]: 4.8 IU/L
